Assay results as given in ChEMBL document CHEMBL1141274, “A Polysaccharide from tomato (Lycopersicon esculentum) peels affects NF-kappaB activation in LPS-stimulated J774 macrophages” (2007).

What was measured:
Assay type in all cases: functional
J774 [1] = experiment: Inhibition of iNOS protein expression in mouse J774 cells by Bio-Rad protein assay
J774 [2] = experiment: Inhibition of LPS induced nitrite production in mouse J774 cells at 10 uM after 24 hrs relative to control; conditions: J774, 24 h
J774 [3] = experiment: Inhibition of LPS induced ROS production in mouse J774 cells at 10 uM after 24 hrs relative to control; conditions: J774, 24 h
J774 [4] = experiment: Inhibition of LPS induced iNOS mRNA level in mouse J774 cells at 10 uM by RT-PCR

## S=C(S)N1CCCC1 [PYRROLIDINE DITHIOCARBAMATE]
J774 [1]
  Inhibition: 60%
J774 [2]
  inhibition at 10 µM: 69.3%
J774 [3]
  inhibition at 10 µM: 42.2%
J774 [4]
  inhibition at 10 µM: 63.9%
